How the values were obtained:
[1] = tested on: acetic acid-induced writhing in mice; test: Acetic acid-induced writhing assay in mice; type: in vivo, ICR mice; conditions: mice
Experimental: 12: 525-562; Ramabadran and Bansinath (1986) Pharm. Res. 3: 263-270]. Intraperitoneal administration of dilute acetic acid solution causes a writhing behavior in mice. A writhe is defined as a contraction of the abdominal muscles accompanied by an extension of the forelimbs and elongation of the body. The number of writhes observed in the presence and absence of test compounds is counted to determine the analgesic activity of the compounds.
Each day a writhing assay was performed, a vehicle control group of mice (n=6-8) that were treated identically to the test group (except that test compound was omitted from the injection dose) was always included and the average total number of writhes in this group used as the absolute reference point defining 0% decrease in pain perception for all other mice receiving a test compound on that day. Specifically, the total number of writhes of each mouse receiving the test compound was converted to % decrease in pain perception according to the following equation:
[formula] Where Wv is the mean number of writhes in vehicle-treated group and Wc is the number of writhes in compound-treated mouse.
Male ICR mice, 23-37 grams in weight, were weighed and placed in individual observation chambers (usually a 4000 ml glass beaker) with a fine layer of SANI-CHIPS rodent bedding at the bottom. […] After administration of the compound or vehicle control, mice were returned to their individual observation chambers awaiting the intraperitoneal administration of acetic acid solution. […] and acetic acid injection, a dose corresponding to 10 ml/kg of a 0.6% (v/v) acetic acid solution was then injected into the right lower quadrant of the abdomen. Immediately after the injection, the mouse was returned to its observation chamber and the recording of the number of writhes begun immediately. The number of writhes was counted over a 15-min period starting from the time of acetic acid injection, the data being collected over three separate 5 minute time periods (0-5 min, 5-10 min, and 10-15 min).
The data were reported as ED50, and Hill coefficient. […] The Hill coefficient is expressed as the arithmetic mean±sem calculated from the values obtained from the animals.
For dose-response analysis, raw data were converted to % maximum possible effect (% MPE) using the formula: % MPE=((test score−vehicle-treated score)/(0−vehicle-treated score))*100. Raw data were analyzed using a one-way ANOVA followed by Dunnett's post-tests. […] Compounds were administered by the intravenous route.

[2] = tested on: mechanical hypersensitivity induced by L5/L6 spinal nerve ligation in rats; test: Spinal nerve ligation (SNL) model of neuropathic pain; type: in vivo, rat; conditions: intravenous route
Experimental: The SNL model (Kim and Chung 1992) was used to induce chronic neuropathic pain. The rats were anesthetized with isoflurane, the left L5 transverse process was removed, and the L5 and L6 spinal nerves were tightly ligated with 6-0 silk suture. The wound was then closed with internal sutures and external staples. Fourteen days following SNL, baseline, post-injury and post-treatment values for non-noxious mechanical sensitivity were evaluated using 8 Semmes-Weinstein filaments (Stoelting, Wood Dale, Ill., USA) with varying stiffness (0.4, 0.7, 1.2, 2.0, 3.6, 5.5, 8.5, and 15 g) according to the up-down method (Chaplan et al. 1994). Animals were placed on a perforated metallic platform and allowed to acclimate to their surroundings for a minimum of 30 minutes before testing. The mean and standard error of the mean (SEM) were determined for each paw in each treatment group. Since this stimulus is normally not considered painful, significant injury-induced increases in responsiveness in this test are interpreted as a measure of mechanical allodynia. […] Compound (2) was administered by the intravenous route. FIG. 10 summarizes the results of these experiments.

[3] = tested on: capsaicin-induced ocular pain; test: Capsaicin-induced ocular pain, palpebral opening in rabbits; type: in vivo, albino New Zealand strain rabbits; conditions: 10-30 min. post capsaicin
[4] = tested on: pancreatitis-induced abdominal hypersensitivity in rats; test: Rat pancreatitis model (dibutylin dichloride), abdominal hypersensitivity; type: in vivo; conditions: intraperitoneal route
Experimental: Chronic pancreatic inflammation was induced in rats by intravenous administration of dibutylin dichloride (DBTC, Aldrich Milwaukee, Wis.) dissolved in 100% ethanol at a dose of 8 mg/kg under isofluorane anesthesia (2-3 liters/min, 4%/vol until anesthetized, then 2.5%/vol throughout the procedure. Control animals received the same volume of vehicle (100% ethanol) alone. Pancreatitis pain was assessed by determination of abdominal sensitivity to probing the abdomen of rats with a calibrated von Frey filament (4 g). Rats were allowed to acclimate in suspended wire-mesh cages for 30 min before testing. A response was indicated by the sharp withdrawal of the abdomen, licking of abdominal area, or whole body withdrawal. […] The mean occurrence of withdrawal events in each trial is expressed as the number of responses to 10 applications. Rats without inflammation of the pancreas typically display withdrawal frequencies to probing with von Frey filament of 0-1. The animals were allowed to recover for 6 days after DBTC administration prior to any pharmacological manipulations.
The number of positive responses, following abdominal probing (out of a possible 10), were recorded at each time point. […] Raw data were analyzed using a two-way repeated measures ANOVA followed by Bonferroni post-tests. […]

[5] = tested on: pruritus induced by compound 48/80 in mice; test: Pruritus model in mice, compound 48/80-induced scratching; type: in vivo, Swiss Webster mice; conditions: inhibition of scratching
Experimental: (§1) Groups of 10 (and in one case, 11) male Swiss Webster mice (25-30 g) were used. Each animal was weighed and allowed to acclimate for at least one hour in individual, rectangular observation boxes. The tails of mice were immersed for 30 seconds in warm water to dilate tail veins and the animals then received an intravenous injection of either vehicle (saline) or compound (2) (0.01, 0.03, 0.10 and 0.30 mg of free base/kg). Fifteen minutes later, each mouse was given either GNTI dihydrochloride (Tocris) (0.30 mg/kg; 0.25 ml/25 g) or compound 48/80 (Sigma) (50 μg in 0.10 ml saline) subcutaneously behind the neck. The animals were then observed in pairs (occasionally in threes) and the number of hind leg scratching movements directed at the neck was counted for 30 minutes. […]

[6] = tested on: pruritus induced by GNTI in mice; test: Pruritus model in mice, GNTI-induced scratching; type: in vivo, Swiss Webster mice; conditions: inhibition of scratching
Experimental: as §1

SMILES: CC(C)C[C@@H](NC(=O)[C@@H](Cc1ccccc1)NC(=O)[C@H](N)Cc1ccccc1)C(=O)N[C@H](CCCCN)C(=O)N1CCC(N)(C(=O)O)CC1 [Compound (2), D-Phe-D-Phe-D-Leu-D-Lys-[ω(4-aminopiperidine-4-carboxylic acid)]-OH]
- dose response in the acetic acid-induced writhing model ([1]; intravenously, 0.01 mg/kg to 0.3 mg/kg): linear dose response relationship
- ED50 (mg/kg, iv, 15 min post-dose) ([1]; iv, 15 min post-dose): 0.07 mg/kg
- % MPE (180 min post-ED90) ([1]; iv, 180 min post-ED90): 77 ± 5% MPE
- % MPE (240 min post-ED90) ([1]; iv, 240 min post-ED90): 81 ± 4% MPE
- % MPE (300 min post-ED90) ([1]; iv, 300 min post-ED90): 84 ± 4% MPE
- ED50, attenuation of mechanical hypersensitivity (SNL model) [2]: 0.38 mg/kg
- Mean palpebral opening (% Control) ([3]; Table VII, 10 mg/ml, five animals): 82.7 % Control
- Mean palpebral opening (% Control) ([3]; Table VIII, 1 mg/ml, ten animals): 60.5 % Control
- Mean palpebral opening (% Control) ([3]; Table VIII, 10 mg/ml, ten animals): 56.6 % Control
- Mean palpebral opening (% Control) ([3]; Table VIII, 25 mg/ml, ten animals): 75.5 % Control
- Mean palpebral opening (% Control) ([3]; Table VIII, 50 mg/ml, ten animals): 87.5 % Control
- ED50, attenuation of abdominal hypersensitivity (pancreatitis model) [4]: 0.03 mg/kg
- Compound 48/80 Model ED50 (mg/kg, iv, 15 min post-dose) [5]: 0.08 (0.04-0.2) mg/kg
- GNTI Model ED50 (mg/kg, iv, 15 min post-dose) [6]: 0.05 (0.02-0.1) mg/kg
